From ChEMBL document CHEMBL1201862, “PubChem BioAssay data set” (2004)
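All cell lines were grown in 96-well plates and treated with compound for 48 hours. GI50 is the concentration that inhibits growth by half.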 Active and inactive are the calls of the source. No stated cut-off is given here; in the data, active = GI50 up to about 1.1 µM and inactive = higher.

Assays:
Experiment in all cases: DTP human tumour cell line panel, 48 h
786-0 = test system: 786-0
A549 = test system: A549
ACHN = test system: ACHN
CAKI-1 = test system: CAKI-1
CCRF-CEM = test system: CCRF-CEM
COLO 205 = test system: COLO 205
DLD-1 = test system: DLD-1
DMS-114 = test system: DMS-114
DMS-273 = test system: DMS-273
EKVX = test system: EKVX
HCC 2998 = test system: HCC 2998
HCT-116 = test system: HCT-116
HCT-15 = test system: HCT-15
HL-60 = test system: HL-60
HOP-62 = test system: HOP-62
HOP-92 = test system: HOP-92
HT-29 = test system: HT-29
IGROV-1 = test system: IGROV-1
K562 = test system: K562
KM-20L2 = test system: KM-20L2
KM12 = test system: KM12
LOX IMVI = test system: LOX IMVI
LXFL 529 = test system: LXFL 529
M14 = test system: M14
M19-MEL = test system: M19-MEL
MOLT-4 = test system: MOLT-4
Malme-3M = test system: Malme-3M
NCI-H226 = test system: NCI-H226
NCI-H23 = test system: NCI-H23
NCI-H460 = test system: NCI-H460
NCI-H522 = test system: NCI-H522
OVCAR-3 = test system: OVCAR-3
OVCAR-5 = test system: OVCAR-5
OVCAR-8 = test system: OVCAR-8
RPMI-8226 = test system: RPMI-8226
RXF 393 = test system: RXF 393
SF-268 = test system: SF-268
SF-539 = test system: SF-539
SK-MEL-28 = test system: SK-MEL-28
SK-MEL-2 = test system: SK-MEL-2
SK-MEL-5 = test system: SK-MEL-5
SK-OV-3 = test system: SK-OV-3
SN12C = test system: SN12C
SNB-19 = test system: SNB-19
SNB-75 = test system: SNB-75
SR = test system: SR
SW-620 = test system: SW-620
TK-10 = test system: TK-10
U-251 = test system: U-251
UACC-257 = test system: UACC-257
UACC-62 = test system: UACC-62
UO-31 = test system: UO-31
XF498 = test system: XF498

In the case of `O=c1[nH]c2c(nc1NC13CC4CC(CC(C4)C1)C3)c(=O)oc1ccccc12`, the GI50 (786-0) is reported as > 100 µM (inactive), the GI50 (A549) is reported as 34 µM (inactive) and the GI50 (ACHN) is reported as > 100 µM (inactive). The GI50 (CAKI-1) was 2.46 µM (inactive), the GI50 (CCRF-CEM) was > 100 µM (inactive) and the GI50 (COLO 205) was > 100 µM (inactive). For the same compound, the GI50 (DLD-1) was 23.8 µM (inactive), the GI50 (DMS-114) was > 100 µM (inactive) and the GI50 (DMS-273) was 62.1 µM (inactive). The GI50 (EKVX) was > 100 µM (inactive), the GI50 (HCC 2998) was > 100 µM (inactive) and the GI50 (HCT-116) was > 100 µM (inactive). For the same compound, the GI50 (HCT-15) was greater than 100 µM, the GI50 (HL-60) was > 100 µM (inactive) and the GI50 (HOP-62) was 50.1 µM (inactive). The GI50 (HOP-92) was > 100 µM (inactive), the GI50 (HT-29) was > 100 µM (inactive) and the GI50 (IGROV-1) was > 100 µM (inactive). The GI50 (K562) was > 100 µM (inactive), the GI50 (KM-20L2) was > 100 µM (inactive) and the GI50 (KM12) was > 100 µM (inactive). For the same compound, the GI50 (LOX IMVI) was 31.6 µM (inactive), the GI50 (LXFL 529) was > 100 µM (inactive) and the GI50 (M14) was 34.3 µM (inactive). For the same compound, the GI50 (M19-MEL) was > 100 µM (inactive), the GI50 (MOLT-4) was > 100 µM (inactive) and the GI50 (Malme-3M) was > 100 µM (inactive). For the same compound, the GI50 (NCI-H226) was 27.9 µM (inactive), the GI50 (NCI-H23) was 26.2 µM (inactive) and the GI50 (NCI-H460) was 70.3 µM (inactive). The GI50 (NCI-H522) was 61.1 µM (inactive), the GI50 (OVCAR-3) was > 100 µM (inactive) and the GI50 (OVCAR-5) was > 100 µM (inactive). For the same compound, the GI50 (OVCAR-8) was 32 µM (inactive), the GI50 (RPMI-8226) was > 100 µM (inactive) and the GI50 (RXF 393) was 46.1 µM (inactive). For the same compound, the GI50 (SF-268) was > 100 µM (inactive), the GI50 (SF-539) was 14.9 µM (inactive) and the GI50 (SK-MEL-28) was > 100 µM (inactive). The GI50 (SK-MEL-2) was > 100 µM (inactive), the GI50 (SK-MEL-5) was 36.9 µM (inactive) and the GI50 (SK-OV-3) was > 100 µM (inactive). The GI50 (SN12C) was > 100 µM (inactive), the GI50 (SNB-19) was 62.2 µM (inactive) and the GI50 (SNB-75) was 29.5 µM (inactive). The GI50 (SR) was > 100 µM (inactive), the GI50 (SW-620) was > 100 µM (inactive) and the GI50 (TK-10) was > 100 µM (inactive). The GI50 (U-251) was 16.6 µM (inactive), the GI50 (UACC-257) was > 100 µM (inactive) and the GI50 (UACC-62) was > 100 µM (inactive). The GI50 (UO-31) was > 100 µM (inactive) and the GI50 (XF498) was > 100 µM (inactive).
